Data reported in patent US10870630B2, “Substituted bicyclic heteroaryl allosteric modulators of nicotinic acetylcholine receptors” (Merck Sharp & Dohme Corp., priority 2016, dated 2020).
pEC50: −log10 of the molar value. Like-named read-outs stand apart in the source and are kept apart here.

Target: human α7 nicotinic acetylcholine receptor (α7 nAChR) (Homo sapiens, UniProt P36544)
Assay: Automated patch-clamp electrophysiology functional assay (Assay A)
Assay type: cell-based
Settings: HEK cell line stably expressing human RIC-3 and human α7, IonFlux HT whole-cell population patch, 40 μM acetylcholine
Procedure: The α7 nAChR positive allosteric modulator (PAM) activity of the present compounds may be tested using assays known in the art. The α7 nAChR PAMs described herein have activities in an automated patch-clamp electrophysiology functional assay as described in the examples. The assay was performed using the IonFlux HT in a whole-cell, population patch configuration. See Golden et al. Assay Drug Dev. Technol. (2011) 9:608-619. The compounds were assessed for their ability to modulate the function of the human […] nAChR stably expressed in a HEK cell line both in the presence, and in the absence of the natural 07 agonist acetylcholine. By performing a series of such measurements at different concentrations, the effective concentration of the α7 nAChR PAMs (EC50) was determined. See Spencer et al. Assay Drug Dev. Technol. (2012) 10:313-324.
Automated patch-clamp electrophysiology was performed using the IonFlux HT (Fluxion Biosciences Inc., San Francisco, Calif.) in the whole-cell, population patch configuration. Test compounds were assessed for their ability to modulate the function of the α7 nicotinic acetylcholine receptor both in the presence, and in the absence of the natural α7 agonist acetylcholine. A HEK cell line stably expressing both human RIC-3 and human α7 (PrecisION hnAChR α7/RIC-3, Eurofins Pharma, St. Charles, Mo.) was cultured in 175 cm^2 triple-layer tissue culture flasks to no more than 90% confluency in DMEM/F-12 growth media supplemented with 10% heat-inactivated fetal bovine serum, 1% non-essential amino acids, 0.625 μg/mL Puromycin, and 400 μg/mL Geneticin. Immediately prior to assay, cells were detached by first aspirating growth media, rinsing with Dulbecco's phosphate buffered saline, and then adding 10 mL of Accutase (Innovative Cell Technologies, San Diego, Calif.) to the flask and then incubating at 37° C. for 5 minutes. Detached cells were then recovered by the addition of 40 mL of CHO-serum-free media supplemented with 25 mM HEPES, and rocked gently in a 50 mL conical tube for 20 minutes prior to patch-clamp assay. After recovery, cells were pelleted by centrifugation at 1,000 RPM for 1 minute in a compact bench top centrifuge; recovery media was aspirated and cells were resuspended in external recording solution (150 mM NaCl, 5 mM KCl, 2 mM CaCl2, 1 mM MgCl2, 10 mM HEPES, 12 mM dextrose) to a density of 5.0×10^6 cells/mL. The cell suspension was added to the cell inlet wells on an IonFlux HT population patch plate which had previously been rinsed and primed with deionized H2O. Test compounds were serially diluted in DMSO and then resuspended to the final test concentration in external recording solution, with, or without 40 μM acetylcholine added to the external recording solution; test compounds were then transferred to the IonFlux HT population patch plate. Internal recording solution (110 mM TrisPO4, 28 mM TrisBase, 0.1 mM CaCl2, 2 mM MgCl2, 11 mM EGTA, 4 mM MgATP) was added to the internal recording solution inlet wells on the IonFlux HT patch plate previously loaded with cells and test compounds, and the plate loaded into the IonFlux HT instrument. A protocol was executed on the IonFlux HT to trap the cells, break into the cells, and establish the whole-cell recording configuration; cells were voltage-clamped at a holding potential of −60 mV for the duration of the experiment, all experiments were conducted at room temperature, and the IonFlux HT injection pressure was 8 psi for solution applications. Upon establishing the whole-cell configuration, external recording solution was perfused into the recording chambers for 120 seconds and then 40 μM acetylcholine was applied for 1 second and immediately washed off with external recording solution for 60 seconds. The 40 μM acetylcholine-evoked α7 current served as the current response to which subsequent test compound effects, in the presence, or in the absence of 40 μM acetylcholine would be quantified relative to. […]

Chain of human α7 nicotinic acetylcholine receptor (α7 nAChR) (P36544 23-502): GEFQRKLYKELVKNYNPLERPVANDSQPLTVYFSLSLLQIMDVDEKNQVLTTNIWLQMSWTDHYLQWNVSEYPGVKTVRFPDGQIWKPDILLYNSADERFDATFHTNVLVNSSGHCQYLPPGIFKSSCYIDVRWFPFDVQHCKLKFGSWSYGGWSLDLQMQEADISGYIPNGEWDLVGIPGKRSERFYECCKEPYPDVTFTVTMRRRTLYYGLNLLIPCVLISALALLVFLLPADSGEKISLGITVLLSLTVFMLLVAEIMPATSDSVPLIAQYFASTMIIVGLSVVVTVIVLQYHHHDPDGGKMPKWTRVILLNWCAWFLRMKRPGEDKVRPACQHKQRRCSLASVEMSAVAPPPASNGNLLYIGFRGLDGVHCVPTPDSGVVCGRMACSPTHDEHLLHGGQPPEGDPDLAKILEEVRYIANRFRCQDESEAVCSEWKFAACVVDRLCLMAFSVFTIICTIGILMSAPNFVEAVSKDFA

| SMILES | pEC50 (read-out: α7 nAChR EC50) | pEC50 (read-out: α7 nAChR Potency) |
| --- | --- | --- |
| Cc1nc2c(C3CC3c3ccc(S(N)(=O)=O)cc3)cccc2s1 (racemic) [Example E1, 4-[2-(2-Methyl-1,3-benzothiazol-4-yl)cyclopropyl]benzenesulfonamide] | 6.39 | 6.30 to 7.00 |
| NS(=O)(=O)c1ccc(C2CC2c2cnn3ccccc23)cc1 (racemic) [Example E3, 4-(2-Pyrazolo[1,5-a]pyridin-3-ylcyclopropyl)benzenesulfonamide] | 5.46 | 5.30 to 6.30 |
| NS(=O)(=O)c1ccc(C2CC2c2cc3ccncc3s2)cc1 (racemic) [Example E7, 4-(2-Thieno[2,3-c]pyridin-2-ylcyclopropyl)benzenesulfonamide] |  | 5.30 to 6.30 |
| NS(=O)(=O)c1ccc(C2CC2c2cc3n(n2)CCCC3)cc1 (racemic) [Example E10, 4-[2-(4,5,6,7-Tetrahydropyrazolo[1,5-a]pyridin-2-yl)cyclopropyl]benzenesulfonamide] |  | 4.30 to 5.30 |
| CN1CCOc2cc(C3CC3c3ccc(S(N)(=O)=O)cc3)cnc21 (racemic) [Example E13, 4-[2-(4-Methyl-2,3-dihydropyrido[3,2-b][1,4]oxazin-7-yl)cyclopropyl]benzenesulfonamide] | 6.06 | 5.30 to 6.30 |
| CC1(C)[C@H](c2ccc(S(N)(=O)=O)cc2)[C@H]1c1nc2ccccc2o1 [Example 1, 4-[(1R,3R)-3-(1,3-Benzoxazol-2-yl)-2,2-dimethylcyclopropyl]benzenesulfonamide] | 6.21 | 5.30 to 6.30 |
| CC1(C)[C@@H](c2ccc(S(N)(=O)=O)cc2)[C@@H]1c1nc2ccc(F)cc2o1 [Example 2, 4-[(1S,3S)-3-(6-Fluoro-1,3-benzoxazol-2-yl)-2,2-dimethylcyclopropyl]benzenesulfonamide] | 7.15 | ≥ 7.00 |

Further lines, results first:

| pEC50 (read-out: α7 nAChR EC50) | pEC50 (read-out: α7 nAChR Potency) | SMILES |
| --- | --- | --- |
|  | 5.30 to 6.30 | NS(=O)(=O)c1ccc(C2CC2c2cnc3cc(Cl)cnc3c2)cc1 (racemic) [Example E2, 4-[2-(7-Chloro-1,5-naphthyridin-3-yl)cyclopropyl]benzenesulfonamide] |
|  | 5.30 to 6.30 | NS(=O)(=O)c1ccc(C2CC2c2ccc3nccnc3c2)cc1 (racemic) [Example E4, 4-(2-Quinoxalin-6-ylcyclopropyl)benzenesulfonamide] |
|  | 5.30 to 6.30 | NS(=O)(=O)c1ccc(C2CC2c2ccc3cc(C(F)(F)F)nnc3c2)cc1 (racemic) [Example E5, 4-[2-[3-(Trifluoromethyl)cinnolin-7-yl]cyclopropyl]benzenesulfonamide] |
| 5.92 | 5.30 to 6.30 | NS(=O)(=O)c1ccc(C2CC2c2ccc3cc(Cl)ncc3c2)cc1 (racemic) [Example E6, 4-[2-(3-Chloro-7-isoquinolyl)cyclopropyl]benzenesulfonamide] |
|  | 5.30 to 6.30 | NS(=O)(=O)c1ccc(C2CC2c2ccc3ccncc3n2)cc1 (racemic) [Example E8, 4-[2-(1,7-Naphthyridin-2-yl)cyclopropyl]benzenesulfonamide] |
| 5.55 | 5.30 to 6.30 | Cn1ncc2cc(C3CC3c3ccc(S(N)(=O)=O)cc3)ccc21 (racemic) [Example E9, 4-[2-(1-Methylindazol-5-yl)cyclopropyl]benzenesulfonamide] |
|  | 5.30 to 6.30 | NS(=O)(=O)c1ccc(C2CC2c2cnc3occc3c2)cc1 (racemic) [Example E11, 4-(2-Furo[2,3-b]pyridin-5-ylcyclopropyl)benzenesulfonamide] |
| 5.30 | 5.30 to 6.30 | Cn1cc2ccc(C3CC3c3ccc(S(N)(=O)=O)cc3)cc2n1 (racemic) [Example E12, 4-[2-(2-Methylindazol-6-yl)cyclopropyl]benzenesulfonamide] |
| 5.89 | 5.30 to 6.30 | NS(=O)(=O)c1ccc([C@@H]2C[C@H]2c2cnc3ccccc3n2)cc1 (relative stereo) [Example 7, 4-[trans-2-(Quinoxalin-2-yl)cyclopropyl]benzenesulfonamide] |
| 6.43 | 6.30 to 7.00 | NS(=O)(=O)c1ccc([C@@H]2C[C@H]2c2ncc3ccccc3n2)cc1 [Example 3, 4-[(1R,2R)-2-(Quinazolin-2-yl)cyclopropyl]benzenesulfonamide] |
